From the kinase profiling compilation of Christmann-Franck et al. (2016)

Experiments:
Assay in all cases: radiometric filter-binding kinase assay, Kinase HotSpot
Conditions in all cases: compound 0.5 µM; ATP 10 µM
STK3 (human) = STK3 (human) (UniProt Q13188)
FGFR2 (human) = FGFR2 (human) (UniProt P21802)
FLT1 (human) = FLT1 (human) (UniProt P17948)
TGFBR1 (human) = TGFBR1 (human) (UniProt P36897)
DAPK3 (human) = DAPK3 (human) (UniProt O43293)
[1] = biological target: JAK1 JH1 catalytic (human) (UniProt P23458)
ADRBK1 (human) = ADRBK1 (human) (UniProt P25098)
ADRBK2 (human) = ADRBK2 (human) (UniProt P35626)
CDK9 CCNK (human) = CDK9 CCNK (human) (UniProt O75909+P50750)
Chain of CDK9 CCNK (human) (O75909 whole entry, looked up): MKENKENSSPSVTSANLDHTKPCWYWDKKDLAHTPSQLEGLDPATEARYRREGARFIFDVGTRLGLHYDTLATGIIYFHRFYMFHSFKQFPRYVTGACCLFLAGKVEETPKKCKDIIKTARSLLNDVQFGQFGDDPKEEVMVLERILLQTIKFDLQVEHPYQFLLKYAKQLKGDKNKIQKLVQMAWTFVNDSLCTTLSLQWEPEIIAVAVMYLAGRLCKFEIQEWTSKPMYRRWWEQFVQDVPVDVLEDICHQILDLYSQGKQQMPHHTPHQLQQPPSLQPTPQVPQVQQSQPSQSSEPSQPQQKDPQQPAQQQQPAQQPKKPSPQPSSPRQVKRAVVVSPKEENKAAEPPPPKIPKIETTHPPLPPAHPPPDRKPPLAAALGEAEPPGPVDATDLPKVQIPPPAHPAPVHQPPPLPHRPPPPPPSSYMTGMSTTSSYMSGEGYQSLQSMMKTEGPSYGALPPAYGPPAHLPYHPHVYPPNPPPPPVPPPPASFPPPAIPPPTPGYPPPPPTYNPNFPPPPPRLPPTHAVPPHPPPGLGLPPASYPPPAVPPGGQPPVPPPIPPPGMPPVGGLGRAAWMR
Chain of CDK9 CCNK (human) (P50750 whole entry, looked up): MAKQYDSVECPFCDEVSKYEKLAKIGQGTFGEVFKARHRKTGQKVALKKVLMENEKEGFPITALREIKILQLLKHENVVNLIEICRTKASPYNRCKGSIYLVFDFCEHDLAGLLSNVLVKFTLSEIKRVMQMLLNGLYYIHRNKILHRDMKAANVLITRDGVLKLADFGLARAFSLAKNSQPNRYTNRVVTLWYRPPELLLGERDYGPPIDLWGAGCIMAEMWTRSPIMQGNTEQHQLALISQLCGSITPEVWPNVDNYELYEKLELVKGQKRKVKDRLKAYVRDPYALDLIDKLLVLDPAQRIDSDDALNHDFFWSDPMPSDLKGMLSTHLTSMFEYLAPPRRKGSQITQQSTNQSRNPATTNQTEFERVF

KDR (human) = KDR (human) (UniProt P35968)
FES (human) = FES (human) (UniProt P07332)
NEK4 (human) = NEK4 (human) (UniProt P51957)
MYLK (human) = MYLK (human) (UniProt Q15746)
NEK2 (human) = NEK2 (human) (UniProt P51955)
BTK (human) = BTK (human) (UniProt Q06187)
DYRK3 (human) = DYRK3 (human) (UniProt O43781)
Chain of DYRK3 (human) (O43781 whole entry, looked up): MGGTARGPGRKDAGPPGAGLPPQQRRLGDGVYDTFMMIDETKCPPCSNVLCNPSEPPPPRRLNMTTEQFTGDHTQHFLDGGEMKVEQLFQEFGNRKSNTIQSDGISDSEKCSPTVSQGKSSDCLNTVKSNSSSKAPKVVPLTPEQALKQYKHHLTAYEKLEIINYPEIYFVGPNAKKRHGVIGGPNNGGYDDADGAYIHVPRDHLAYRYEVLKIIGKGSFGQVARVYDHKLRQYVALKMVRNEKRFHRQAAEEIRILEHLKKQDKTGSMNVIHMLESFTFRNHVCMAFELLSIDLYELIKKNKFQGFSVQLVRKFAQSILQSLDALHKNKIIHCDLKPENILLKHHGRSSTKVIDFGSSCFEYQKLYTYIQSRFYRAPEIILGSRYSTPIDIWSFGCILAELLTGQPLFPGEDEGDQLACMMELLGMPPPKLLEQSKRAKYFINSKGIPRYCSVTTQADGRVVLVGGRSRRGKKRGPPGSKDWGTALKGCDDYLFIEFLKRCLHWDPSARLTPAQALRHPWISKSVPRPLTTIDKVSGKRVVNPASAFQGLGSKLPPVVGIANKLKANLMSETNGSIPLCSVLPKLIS

AKT3 (human) = AKT3 (human) (UniProt Q9Y243)
PRKACA (human) = PRKACA (human) (UniProt P17612)
CAMK1D (human) = CAMK1D (human) (UniProt Q8IU85)
DYRK1A (human) = DYRK1A (human) (UniProt Q13627)
NTRK2 (human) = NTRK2 (human) (UniProt Q16620)
TAOK3 (human) = TAOK3 (human) (UniProt Q9H2K8)
MAPK8 (human) = MAPK8 (human) (UniProt P45983)
CSF1R (human) = CSF1R (human) (UniProt P07333)
RPS6KA2 KD1 KD2 (human) = RPS6KA2 KD1 KD2 (human) (UniProt Q15349)
CDK7 CCNH MNAT1 (human) = CDK7 CCNH MNAT1 (human) (UniProt P50613+P51948+P51946)
NUAK2 (human) = NUAK2 (human) (UniProt Q9H093)
PHKG1 (human) = PHKG1 (human) (UniProt Q16816)
TEK (human) = TEK (human) (UniProt Q02763)
PAK1 (human) = PAK1 (human) (UniProt Q13153)
Chain of PAK1 (human) (Q13153 whole entry, looked up): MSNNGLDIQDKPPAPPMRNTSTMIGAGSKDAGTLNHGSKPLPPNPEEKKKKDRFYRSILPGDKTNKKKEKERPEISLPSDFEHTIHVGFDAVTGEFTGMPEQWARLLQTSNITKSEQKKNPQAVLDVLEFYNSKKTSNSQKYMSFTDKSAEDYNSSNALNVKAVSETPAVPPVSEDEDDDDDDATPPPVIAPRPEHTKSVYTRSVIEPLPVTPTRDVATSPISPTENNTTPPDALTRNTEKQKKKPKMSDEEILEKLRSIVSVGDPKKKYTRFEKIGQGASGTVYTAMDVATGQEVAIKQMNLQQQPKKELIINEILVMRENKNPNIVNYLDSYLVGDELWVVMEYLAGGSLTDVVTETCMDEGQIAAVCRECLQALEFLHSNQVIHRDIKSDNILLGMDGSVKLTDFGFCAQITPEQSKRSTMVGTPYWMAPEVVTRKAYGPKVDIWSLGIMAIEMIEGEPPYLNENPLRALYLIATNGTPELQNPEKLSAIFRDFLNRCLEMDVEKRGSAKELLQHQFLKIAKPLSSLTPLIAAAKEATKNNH

CDK2 CCNE1 (human) = CDK2 CCNE1 (human) (UniProt P24941+P24864)
Chain of CDK2 CCNE1 (human) (P24864 whole entry, looked up, other chains not shown): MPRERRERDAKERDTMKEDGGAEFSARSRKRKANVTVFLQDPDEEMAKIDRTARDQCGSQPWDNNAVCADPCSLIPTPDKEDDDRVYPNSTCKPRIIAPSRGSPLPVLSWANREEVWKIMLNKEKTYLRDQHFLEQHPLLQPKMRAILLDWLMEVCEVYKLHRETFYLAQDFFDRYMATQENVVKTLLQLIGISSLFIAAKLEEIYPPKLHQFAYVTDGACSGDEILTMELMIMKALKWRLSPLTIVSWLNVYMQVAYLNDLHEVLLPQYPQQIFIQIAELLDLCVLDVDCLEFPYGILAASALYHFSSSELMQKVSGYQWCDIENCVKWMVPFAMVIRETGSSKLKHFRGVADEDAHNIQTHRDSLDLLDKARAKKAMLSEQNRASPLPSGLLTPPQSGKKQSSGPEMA

STK33 (human) = STK33 (human) (UniProt Q9BYT3)
EPHA2 (human) = EPHA2 (human) (UniProt P29317)
MAPKAPK3 (human) = MAPKAPK3 (human) (UniProt Q16644)
MARK1 (human) = MARK1 (human) (UniProt Q9P0L2)
DYRK1B (human) = DYRK1B (human) (UniProt Q9Y463)
TXK (human) = TXK (human) (UniProt P42681)
Chain of TXK (human) (P42681 whole entry, looked up): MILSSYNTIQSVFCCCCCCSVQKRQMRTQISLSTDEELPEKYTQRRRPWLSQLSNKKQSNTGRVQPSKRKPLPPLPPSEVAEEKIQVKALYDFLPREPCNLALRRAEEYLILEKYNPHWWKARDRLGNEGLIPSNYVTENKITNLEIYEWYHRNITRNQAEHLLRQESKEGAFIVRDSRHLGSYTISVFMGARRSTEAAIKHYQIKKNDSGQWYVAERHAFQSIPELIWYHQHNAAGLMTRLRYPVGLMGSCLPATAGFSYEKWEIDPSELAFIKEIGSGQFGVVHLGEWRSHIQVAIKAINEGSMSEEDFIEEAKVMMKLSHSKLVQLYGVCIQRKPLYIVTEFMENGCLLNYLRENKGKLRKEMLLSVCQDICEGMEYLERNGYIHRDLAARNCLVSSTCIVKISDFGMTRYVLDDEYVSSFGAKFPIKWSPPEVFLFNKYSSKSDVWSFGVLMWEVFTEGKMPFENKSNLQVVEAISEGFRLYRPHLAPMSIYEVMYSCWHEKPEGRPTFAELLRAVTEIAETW

CHUK (human) = CHUK (human) (UniProt O15111)
TSSK1B (human) = TSSK1B (human) (UniProt Q9BXA7)
RPS6KA1 KD1 KD2 (human) = RPS6KA1 KD1 KD2 (human) (UniProt Q15418)
BLK (human) = BLK (human) (UniProt P51451)

Chain of DAPK3 (human) (O43293 whole entry, looked up): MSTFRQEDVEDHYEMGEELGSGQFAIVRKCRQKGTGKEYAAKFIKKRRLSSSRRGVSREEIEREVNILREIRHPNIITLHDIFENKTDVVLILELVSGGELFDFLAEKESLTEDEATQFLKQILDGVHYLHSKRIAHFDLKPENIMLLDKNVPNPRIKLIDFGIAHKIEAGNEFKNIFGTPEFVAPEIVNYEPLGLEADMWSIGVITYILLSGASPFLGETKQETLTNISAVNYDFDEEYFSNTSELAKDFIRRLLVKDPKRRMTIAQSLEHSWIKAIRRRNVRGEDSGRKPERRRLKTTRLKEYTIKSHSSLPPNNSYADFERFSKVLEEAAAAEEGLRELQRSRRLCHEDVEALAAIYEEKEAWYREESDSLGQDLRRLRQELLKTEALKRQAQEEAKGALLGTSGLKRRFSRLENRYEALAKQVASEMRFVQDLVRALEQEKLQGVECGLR
Chain of FLT1 (human) (P17948 whole entry, looked up): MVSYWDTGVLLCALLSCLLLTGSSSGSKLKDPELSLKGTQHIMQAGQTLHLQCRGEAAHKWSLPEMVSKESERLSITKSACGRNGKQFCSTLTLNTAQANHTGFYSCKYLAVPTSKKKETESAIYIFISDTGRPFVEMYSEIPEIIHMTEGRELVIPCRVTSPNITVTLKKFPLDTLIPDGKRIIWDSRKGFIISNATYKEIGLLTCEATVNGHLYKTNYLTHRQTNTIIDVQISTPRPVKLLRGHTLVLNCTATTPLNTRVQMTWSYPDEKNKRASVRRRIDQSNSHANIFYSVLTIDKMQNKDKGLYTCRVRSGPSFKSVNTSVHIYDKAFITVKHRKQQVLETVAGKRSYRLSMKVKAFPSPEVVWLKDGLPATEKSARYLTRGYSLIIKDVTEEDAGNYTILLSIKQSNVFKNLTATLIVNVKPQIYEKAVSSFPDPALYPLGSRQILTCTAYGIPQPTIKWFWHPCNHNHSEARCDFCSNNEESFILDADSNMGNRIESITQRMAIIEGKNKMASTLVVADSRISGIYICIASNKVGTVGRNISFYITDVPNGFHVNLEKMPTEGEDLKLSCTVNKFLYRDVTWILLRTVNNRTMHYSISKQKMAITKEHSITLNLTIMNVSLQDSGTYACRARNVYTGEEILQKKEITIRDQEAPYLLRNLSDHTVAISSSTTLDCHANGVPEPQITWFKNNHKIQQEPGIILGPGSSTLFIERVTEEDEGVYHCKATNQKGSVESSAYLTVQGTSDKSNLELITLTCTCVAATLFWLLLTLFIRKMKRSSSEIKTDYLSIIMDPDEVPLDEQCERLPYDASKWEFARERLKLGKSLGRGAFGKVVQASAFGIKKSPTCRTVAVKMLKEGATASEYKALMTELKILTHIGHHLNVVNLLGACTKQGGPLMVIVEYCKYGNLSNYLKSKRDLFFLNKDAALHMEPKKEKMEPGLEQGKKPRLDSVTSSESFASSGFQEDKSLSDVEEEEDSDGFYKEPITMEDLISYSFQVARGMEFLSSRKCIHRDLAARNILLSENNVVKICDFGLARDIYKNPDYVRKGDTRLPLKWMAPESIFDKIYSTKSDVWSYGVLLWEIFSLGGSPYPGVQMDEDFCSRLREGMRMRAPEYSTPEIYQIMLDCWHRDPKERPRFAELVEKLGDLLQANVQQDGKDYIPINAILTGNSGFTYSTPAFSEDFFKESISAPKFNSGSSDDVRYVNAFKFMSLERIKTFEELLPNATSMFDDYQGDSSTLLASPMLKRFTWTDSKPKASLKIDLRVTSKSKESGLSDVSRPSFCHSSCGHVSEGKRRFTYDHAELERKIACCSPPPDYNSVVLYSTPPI

CCc1nc(-c2ccc(OC)cc2)[nH]c1-c1ccncc1
residual activity (STK3 (human)): 104% | residual activity (FGFR2 (human)): 104% | residual activity (FLT1 (human)): 90.2% | residual activity (TGFBR1 (human)): 98.2% | residual activity (DAPK3 (human)): 95.8% | residual activity [1]: 110% | residual activity (ADRBK1 (human)): 101% | residual activity (ADRBK2 (human)): 98.4% | residual activity (CDK9 CCNK (human)): 97.9% | residual activity (KDR (human)): 103% | residual activity (FES (human)): 100% | residual activity (NEK4 (human)): 95.2% | residual activity (MYLK (human)): 104% | residual activity (NEK2 (human)): 100% | residual activity (BTK (human)): 106% | residual activity (DYRK3 (human)): 95.5% | residual activity (AKT3 (human)): 101% | residual activity (PRKACA (human)): 100% | residual activity (CAMK1D (human)): 104% | residual activity (DYRK1A (human)): 97.7% | residual activity (NTRK2 (human)): 105% | residual activity (TAOK3 (human)): 107% | residual activity (MAPK8 (human)): 98.9% | residual activity (CSF1R (human)): 100% | residual activity (RPS6KA2 KD1 KD2 (human)): 99.1% | residual activity (CDK7 CCNH MNAT1 (human)): 97.3% | residual activity (NUAK2 (human)): 129% | residual activity (PHKG1 (human)): 97% | residual activity (TEK (human)): 99.1% | residual activity (PAK1 (human)): 99.3% | residual activity (CDK2 CCNE1 (human)): 93.7% | residual activity (STK33 (human)): 101% | residual activity (EPHA2 (human)): 102% | residual activity (MAPKAPK3 (human)): 102% | residual activity (MARK1 (human)): 99.2% | residual activity (DYRK1B (human)): 106% | residual activity (TXK (human)): 100% | residual activity (CHUK (human)): 104% | residual activity (TSSK1B (human)): 106% | residual activity (RPS6KA1 KD1 KD2 (human)): 106% | residual activity (BLK (human)): 105%

O=c1c(-c2ccc(F)cc2)c(-c2ccncc2)[nH]n1-c1ccc(Cl)cc1
residual activity (STK3 (human)): 88.3% | residual activity (FGFR2 (human)): 94% | residual activity (FLT1 (human)): 81.3% | residual activity (TGFBR1 (human)): 101% | residual activity (DAPK3 (human)): 94.7% | residual activity [1]: 103% | residual activity (ADRBK1 (human)): 106% | residual activity (ADRBK2 (human)): 95% | residual activity (CDK9 CCNK (human)): 93.4% | residual activity (KDR (human)): 90.6% | residual activity (FES (human)): 92.3% | residual activity (NEK4 (human)): 93.9% | residual activity (MYLK (human)): 101% | residual activity (NEK2 (human)): 85.4% | residual activity (BTK (human)): 83.6% | residual activity (DYRK3 (human)): 82.7% | residual activity (AKT3 (human)): 94.3% | residual activity (PRKACA (human)): 90.7% | residual activity (CAMK1D (human)): 72.2% | residual activity (DYRK1A (human)): 89.8% | residual activity (NTRK2 (human)): 88.5% | residual activity (TAOK3 (human)): 89.5% | residual activity (MAPK8 (human)): 90.2% | residual activity (CSF1R (human)): 102% | residual activity (RPS6KA2 KD1 KD2 (human)): 91.8% | residual activity (CDK7 CCNH MNAT1 (human)): 97.4% | residual activity (NUAK2 (human)): 88.7% | residual activity (PHKG1 (human)): 94.1% | residual activity (TEK (human)): 94.4% | residual activity (PAK1 (human)): 92.4% | residual activity (CDK2 CCNE1 (human)): 89.1% | residual activity (STK33 (human)): 101% | residual activity (EPHA2 (human)): 101% | residual activity (MAPKAPK3 (human)): 101% | residual activity (MARK1 (human)): 94.5% | residual activity (DYRK1B (human)): 92.2% | residual activity (TXK (human)): 94.4% | residual activity (CHUK (human)): 101% | residual activity (TSSK1B (human)): 76.2% | residual activity (RPS6KA1 KD1 KD2 (human)): 103% | residual activity (BLK (human)): 91.6%
